Article PMC2912835 (Journal of Experimental & Clinical Cancer Research : CR, 2010)

Columns and labels:
Kit D816V mutant = molecular target: T1, Kit D816V mutant (Homo sapiens, UniProt P10721, D816V); assay: Cell-based Kit autophosphorylation assay, D816V mutant; details: stably transfected CHO cells, up to 3000 nM
T1 construct: human wild-type KIT to yield full-length, mutant constructs; expressed in transfected cells; host or cells: AM-1/D CHO cells, stably transfected
Experimental: (§1) CHO cells stably transfected with wild-type or mutant isoforms of KIT were seeded in a 96-well tissue culture plate at a density of 2 × 10^4 cells per well. For stem cell factor (SCF) characterization experiments, cells were stimulated with serial dilutions of SCF for varying times. […] Cell lines transfected with activating KIT mutants were not stimulated with SCF in IC50 experiments. Cells were washed with phosphate-buffered saline and lysed in RIPA buffer (50 mM Tris, pH 7; 150 mM NaCl, 1% Igepal, 0.5% sodium deoxycholate, 0.1% SDS, 300 μM activated sodium vanadate, 1× protease inhibitor cocktail) for 30 minutes at 4°C with shaking. Cell lysates were added to a 96-well DELFIA microplate (PerkinElmer Inc.) coated with anti-Kit antibody (1 μg per well; AF332, R&D Systems, Inc.; Minneapolis, MN) and incubated for 2 hours. Lysates were then removed and the plate was washed 3 times with DELFIA wash buffer (PerkinElmer Inc.). […] The plate was then washed 3 times with DELFIA wash buffer before 0.01 μg of Eu-N1-labeled anti-mouse antibody (Cat. # AD0124, PerkinElmer Inc.) was added to each well. The plate was again incubated at room temperature for 1 hour and then washed 3 times with DELFIA wash buffer before the signal was detected by adding DELFIA enhancement buffer (PerkinElmer Inc.) to each well.

Kit = test system: Kit; design: method as in PMID 16951187; details: biochemical assays; read-out: IC50, inhibition of Kit activity; cited from earlier work
[1] = test system: Kit activity (hair depigmentation); assay: In vivo hair depigmentation assay (surrogate marker of Kit activity); details: female C57B6 mice
Experimental: Female C57B6 mice (6 to 8 weeks old; 20 to 30 g; Charles River Laboratories, Wilmington, MA) were anesthetized, and an area of skin 2 × 2 cm on the right flank was depilated. […] On day 21, photographs were taken for assessment of hair depigmentation. The same patch of skin was depilated again on day 28, and photographs for assessment of depigmentation were taken on day 35. All animal experimental procedures were conducted in accordance with the guidelines of the Amgen Animal Care and Use Committee and the Association for Assessment and Accreditation of Laboratory Animal Care standards.

PDGFR = test system: PDGFR; design: method as in PMID 16951187; details: biochemical assays; read-out: IC50, inhibition of PDGFR activity; cited from earlier work
Kit V560D/V654A mutant = molecular target: T2, Kit V560D/V654A mutant (Homo sapiens, UniProt P10721, V560D/V654A); assay: Cell-based Kit autophosphorylation assay, V560D/V654A mutant; details: autophosphorylation IC50 […] nM versus […] nM
T2 construct: human wild-type KIT to yield full-length, mutant constructs; expressed in transfected cells; host or cells: AM-1/D CHO cells, stably transfected
Experimental: as §1

[2] = test system: Ba/F3 cells stably transfected with KIT Δ552-559; assay: cells; details: Mus musculus, BaF3, 24 h, read-out: IC50 of Stably Transfected Ba/F3 Cell Survival
Experimental: (§2) The ability of Kit mutants to act as survival factors was assessed in Kit-dependent Ba/F3 cells. Ba/F3 cells stably transfected with various KIT mutants were seeded in a 96-well tissue culture plate at a density of 5 × 10^3 cells per well. […] Cell viability was assessed by measuring the level of adenosine triphosphate using ATPlite assays (PerkinElmer Life Sciences, Boston, MA). Reconstituted ATPLite 1-step solution was added to each well followed by incubation with shaking for 2 minutes. The plate was read on a Victor Model 1420 multilabel counter (PerkinElmer Inc.) under the luminescence setting.

[3] = test system: Ba/F3 cells stably transfected with KIT V560D/V654A; assay: cells; details: Mus musculus, BaF3, 24 h, read-out: IC50 of Stably Transfected Ba/F3 Cell Survival
Experimental: as §2

[4] = test system: Ba/F3 cells stably transfected with KIT Y823D; assay: cells; details: Mus musculus, BaF3, 24 h, read-out: IC50 of Stably Transfected Ba/F3 Cell Survival
Experimental: as §2

[5] = test system: Ba/F3 cells stably transfected with KIT V560D; assay: cells; details: Mus musculus, BaF3, 24 h, read-out: IC50 of Stably Transfected Ba/F3 Cell Survival
Experimental: as §2

[6] = test system: Ba/F3 cells stably transfected with KIT AYins503-504; assay: cells; details: Mus musculus, BaF3, 24 h, read-out: IC50 of Stably Transfected Ba/F3 Cell Survival
Experimental: as §2

[7] = test system: Ba/F3 cells stably transfected with KIT V560D/T670I; assay: cells; details: Mus musculus, BaF3, 24 h, read-out: IC50 of Stably Transfected Ba/F3 Cell Survival
Experimental: as §2

[8] = test system: Kit (hair depigmentation); design: method as in PMID 12966161; details: mice; cited from earlier work

SMILES: CC1(C)CNc2cc(NC(=O)c3cccnc3NCc3ccncc3)ccc21 [Motesanib]
- Inhibition of autophosphorylation of the D816V mutant (Kit D816V mutant): neither motesanib nor imatinib inhibited
- Hair depigmentation of regrown hair ([1]; 75 mg/kg oral twice daily for 21 days after depilation, assessed day 21, vs vehicle): markedly depigmented
- Hair depigmentation of regrown hair after cessation of treatment ([1]; treatment stopped day 21, depilated again day 28, assessed day 35): no apparent depigmentation
- IC50 (PDGFR): 84 nM
- Loss of activity, V560D/V654A double mutant compared with V560D alone (Kit V560D/V654A mutant): fifteen-fold loss
- IC50 [2]: 0.4 nM
- IC50 [3]: 91 nM
- IC50 [4]: 62 nM
- IC50 [5]: 3 nM
- IC50 [6]: 11 nM
- IC50 [7]: 180 nM

SMILES: CCN(CC)CCNC(=O)c1c(C)[nH]c(/C=C2\C(=O)Nc3ccc(F)cc32)c1C [sunitinib]
- Hair depigmentation [8]: Depigmentation has previously been observed
